Laboratory results reported in patent publication US7348347B2, “Substituted 4,5,6,7-tetrahydrobenzthiazol-2-ylamine compounds” (Gruenenthal GmbH, priority 2004, dated 2008).

Each compound was assayed against T1, 5-HT uptake (Rattus norvegicus, UniProt P31652) (assay: Inhibition of 5-HT uptake in rat brain synaptosomes). Settings: rat synaptosomes (and pons), [3H]-5-HT.
T1 construct: from tissue; host or cells: rat brain synaptosomes (P2 fraction) from marrow (medulla) and pons
Format: biochemical
Procedure: The relevant literature reference is enclosed herein by reference and is to be regarded as part of the disclosure.
The homogenate is centrifuged at 4° C. for 10 minutes at 1000 g. Following subsequent centrifugation at 17,000 g for 55 minutes, the synaptosomes (P2 fraction) are obtained, which are then resuspended in 0.32 M […] (0.5 mL/100 mg of the original weight).
The respective uptake was measured in a 96 well microtiter plate. The volume was 250 μL and the incubation was carried out at room temperature (ca 20-25° C.) under a blanket of oxygen.
The 96 samples through were then filtered through a Unifilter GF/B® microtiter plate (Packard) and washed with 200 mL of incubated buffer with the aid of a “Brabdel Cell-Harvester MPXRI 96T”. The Unifilter GF/B plate was dried at 55° C. over a period of 1 h. The plate was then sealed with a back seal® (Packard) and there were then added 35 μL of scintillant fluid per well (Ultima Gold, Packard).
A detailed description of the method is disclosed in the literature, for example, in M. Ch.

T1 sequence (P31652 whole entry): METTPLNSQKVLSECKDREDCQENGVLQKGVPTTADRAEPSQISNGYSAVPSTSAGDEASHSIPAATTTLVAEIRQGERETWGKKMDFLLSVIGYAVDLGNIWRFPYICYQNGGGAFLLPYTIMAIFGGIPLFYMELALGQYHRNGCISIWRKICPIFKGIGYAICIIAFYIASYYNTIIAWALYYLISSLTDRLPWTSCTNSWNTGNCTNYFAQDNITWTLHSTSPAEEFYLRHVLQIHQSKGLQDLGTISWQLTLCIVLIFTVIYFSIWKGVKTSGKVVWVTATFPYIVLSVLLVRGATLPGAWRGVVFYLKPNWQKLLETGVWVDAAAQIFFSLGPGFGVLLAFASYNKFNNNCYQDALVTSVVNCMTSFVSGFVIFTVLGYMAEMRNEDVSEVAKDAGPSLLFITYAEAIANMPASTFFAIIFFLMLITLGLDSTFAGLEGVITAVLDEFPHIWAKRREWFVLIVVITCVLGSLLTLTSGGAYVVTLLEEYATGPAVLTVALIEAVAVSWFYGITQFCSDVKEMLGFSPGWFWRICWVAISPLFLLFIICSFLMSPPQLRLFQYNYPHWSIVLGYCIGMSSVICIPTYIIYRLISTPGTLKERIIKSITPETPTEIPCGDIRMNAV

Row | Compound | % Inhibition of 5-HT uptake [10 μM]
1 | 2-[2-(3,5-Difluorophenyl)acetylamino]-4,5,6,7-tetrahydrobenzthiazol-4-carboxylic acid[1-(2-ethoxybenzyl)pyrrolidin-3-yl]methylamide [Example 44] | 41%

Same assay, conditions: rat synaptosomes (medulla and pons), [3H]-5-HT

Row | % Inhibition of 5-HT uptake [10 μM] | inhibition at 10 µM | Compound
2 | 80% |  | CCOc1ccccc1C(=O)Nc1nc2c(s1)CCCC2C(=O)NCCCN(C)c1ccccc1 (stereo not shown) [Example 69, 2-(2-Ethoxybenzoylamino)-4,5,6,7-tetrahydrobenzthiazol-4-carboxylic acid[3-(methylphenyl-amino)propyl]amide]
3 |  | 54% | CC(C)(C)CC(=O)Nc1nc2c(s1)CCCC2C(=O)N1CCN(c2ccc(C(F)(F)F)cn2)CC1 (stereo not shown) [Example 86, 3,3-Dimethyl-N-{4-[4-(5-trifluoromethylpyridin-2-yl)piperazin-1-carbonyl]-4,5,6,7-tetrahydrobenzthiazol-2-yl}butyramide]
4 |  | 84% | CN(CCCNC(=O)C1CCCc2sc(NC(=O)CC3CCCCC3)nc21)c1ccccc1 (stereo not shown) [Example 68, 2-(2-Cyclohexylacetylamino)-4,5,6,7-tetrahydrobenzthiazol-4-carboxylic acid [3-(methylphenyl-amino)propyl]amide]
5 | 53% |  | O=C(Cc1cc(F)cc(F)c1)Nc1nc2c(s1)CCCC2C(=O)NCC1CCN(Cc2c(Cl)cccc2Cl)C1 (stereo not shown) [Example 62, 2-[2-(3,5-Difluorophenyl)acetylamino]-4,5,6,7-tetrahydrobenzthiazol-4-carboxylic acid[1-(2,6-dichlorobenzyl)pyrrolidin-3-yl]methylamide]
6 |  | 41% | O=C(CC1CCCCC1)Nc1nc2c(s1)CCCC2C(=O)N1CCN(C(c2ccccc2)c2ccccc2)CC1 (stereo not shown) [Example 88, N-[4-(4-Benzhydrylpiperazin-1-carbonyl)-4,5,6,7-tetrahydrobenzthiazol-2-yl]-2-cyclohexylacetamide]
7 |  | 62% | O=C(C=Cc1ccco1)Nc1nc2c(s1)CCCC2C(=O)N1CCN(c2cccc(C(F)(F)F)c2)CC1 (stereo not shown) [Example 76, 3-Furan-2-yl-N-{4-[4-(3-trifluoromethylphenyl)piperazin-1-carbonyl]-4,5,6,7-tetrahydrobenzthiazol-2-yl}acrylamide]
8 |  | 82% | O=C(Cc1cc(F)cc(F)c1)Nc1nc2c(s1)CCCC2C(=O)N1CCN(c2cccc(C(F)(F)F)c2)CC1 (stereo not shown) [Example 74, 2-(3,5-Difluorophenyl)-N-{4-[4-(3-trifluoromethylphenyl)piperazin-1-carbonyl]-4,5,6,7-tetrahydrobenzthiazol-2-yl}acetamide]
9 |  | 72% | O=C(Cc1cc(F)cc(F)c1)Nc1nc2c(s1)CCCC2C(=O)N1CCCC1CN1CCCC1 (stereo not shown) [Example 57, 2-(3,5-Difluorophenyl)-N-[4-(2-pyrrolidin-1-ylmethylpyrrolidin-1-carbonyl)-4,5,6,7-tetrahydrobenzthiazol-2-yl]acetamide]
10 | 44% |  | CCCCCC(=O)Nc1nc2c(s1)CCCC2C(=O)N1CCN(Cc2cc3ccccc3o2)CC1 (stereo not shown) [Example 65, Hexanoic acid[4-(4-benzofuran-2-ylmethylpiperazin-1-carbonyl)-4,5,6,7-tetrahydrobenzthiazol-2-yl]amide]
11 | 59% |  | CCOc1ccccc1CN1CCC(CNC(=O)C2CCCc3sc(NC(=O)COc4ccccc4)nc32)C1 (stereo not shown) [Example 51, 2-(2-Phenoxyacetylamino)-4,5,6,7-tetrahydrobenzthiazol-4-carboxylic acid[1-(2-ethoxybenzyl)pyrrolidin-3-yl]methylamide]
12 | 46% |  | CCCCCC(=O)Nc1nc2c(s1)CCCC2C(=O)N1CCN(Cc2ccc(OC)c(F)c2)CC1 (stereo not shown) [Example 59, Hexanoic acid{4-[4-(3-fluoro-4-methoxybenzyl)piperazin-1-carbonyl]-4,5,6,7-tetrahydrobenzthiazol-2-yl}amide]
13 | 42% |  | O=C(Nc1nc2c(s1)CCCC2C(=O)N1CCN(Cc2ccccc2F)CC1)c1ccc2ccccc2c1 (stereo not shown) [Example 53, Naphthalene-2-carboxylic acid{4-[4-(2-fluorobenzyl)piperazin-1-carbonyl]-4,5,6,7-tetrahydrobenzthiazol-2-yl}amide]
14 |  | 48% | CCOc1ccccc1C(=O)Nc1nc2c(s1)CCCC2C(=O)N1CCN(c2ccccc2Cl)CC1 (stereo not shown) [Example 85, N-{4-[4-(2-Chlorophenyl)piperazin-1-carbonyl]-4,5,6,7-tetrahydrobenzthiazol-2-yl}-2-ethoxybenzamide]
15 |  | 53% | O=C(Cc1cccs1)Nc1nc2c(s1)CCCC2C(=O)N1CCN(C(c2ccccc2)c2ccccc2)CC1 (stereo not shown) [Example 84, N-[4-(4-Benzhydrylpiperazin-1-carbonyl)-4,5,6,7-tetrahydrobenzthiazol-2-yl]-2-thiophen-2-ylacetamide]
16 |  | 44% | O=C(Cc1cc(F)cc(F)c1)Nc1nc2c(s1)CCCC2C(=O)N1CCN(C(c2ccccc2)c2ccccc2)CC1 (stereo not shown) [Example 83, N-[4-(4-Benzhydrylpiperazin-1-carbonyl)-4,5,6,7-tetrahydrobenzthiazol-2-yl]-2-(3,5-difluorophenyl)acetamide]
17 |  | 44% | O=C(CCc1ccccc1)Nc1nc2c(s1)CCCC2C(=O)N1CCN(c2ccc(C(F)(F)F)cn2)CC1 (stereo not shown) [Example 70, 3-Phenyl-N-{4-[4-(5-trifluoromethylpyridin-2-yl)piperazin-1-carbonyl]-4,5,6,7-tetrahydrobenzthiazol-2-yl}propionamide]

More lines, now with the values behind:

Row | Compound | % Inhibition of 5-HT uptake [10 μM] | inhibition at 10 µM
18 | CN1CCN(C(=O)C2CCCc3sc(NC(=O)c4ccc5ccccc5c4)nc32)CC1 (stereo not shown) [Example 4, Naphthalene-2-carboxylic acid[4-(4-methylpiperazin-1-carbonyl)-4,5,6,7-tetrahydrobenzthiazol-2-yl]amide] | 48% | 
19 | O=C(Nc1nc2c(s1)CCCC2C(=O)N1CCCC1CN1CCCC1)c1ccc2ccccc2c1 (stereo not shown) [Example 26, Naphthalene-2-carboxylic acid[4-(2-pyrrolidin-1-ylmethylpyrrolidin-1-carbonyl)-4,5,6,7-tetrahydrobenzthiazol-2-yl]amide] | 80% | 
20 | CC1CCCCN1CCCNC(=O)C1CCCc2sc(NC(=O)C=Cc3ccco3)nc21 (stereo not shown) [Example 23, 2-(3-Furan-2-ylacryloylamino)-4,5,6,7-tetrahydrobenzthiazol-4-carboxylic acid [3-(2-methylpiperidin-1-yl)propyl]amid] |  | 57%
21 | COc1ccccc1CC(=O)Nc1nc2c(s1)CCCC2C(=O)N1CCN(Cc2cc(OC)c3c(c2)OCO3)CC1 (stereo not shown) [Example 6, N-{4-[4-(7-Methoxybenzo[1, 3]dioxol-5-ylmethyl)piperazin-1-carbonyl]-4,5,6,7-tetrahydrobenzthiazol-2-yl}-2-(2-methoxyphenyl)acetamide] |  | 51%
22 | O=C(Nc1nc2c(s1)CCCC2C(=O)NCCN1CCCC1)c1ccc2ccccc2c1 (stereo not shown) [Example 43, 2-[(Naphthalene-2-carbonyl)amino]-4,5,6,7-tetrahydrobenzthiazol-4-carboxylic acid (2-pyrrolidin-1-ylethyl)amide] |  | 63%
23 | Cc1cc(C)cc(C(=O)Nc2nc3c(s2)CCCC3C(=O)NC2CCN(Cc3ccccc3SC(C)(C)C)C2)c1 (stereo not shown) [Example 35] | 41% | 
24 | CC=CC=CC(=O)Nc1nc2c(s1)CCCC2C(=O)NCC1CCN(Cc2ccc(-c3ccccc3)cc2)C1 (stereo not shown) [Example 37, 2-Hexa-2,4-dienoylamino-4,5,6,7-tetrahydrobenzthiazol-4-carboxylic acid (1-biphenyl-4-ylmethylpyrrolidin-3-yl)methylamide] |  | 44%
25 | CN(C)CCCNC(=O)C1CCCc2sc(NC(=O)CC(C)(C)C)nc21 (stereo not shown) [Example 24, 2-(3,3-Dimethylbutyrylamino)-4,5,6,7-tetrahydrobenzthiazol-4-carboxylic acid(3-dimethylaminopropyl)amide] |  | 89%
26 | CN(C)c1ccc(CNC(=O)C2CCCc3sc(NC(=O)c4ccc5ccccc5c4)nc32)cc1 (stereo not shown) [Example 45, 2-[(Naphthalene-2-carbonyl)amino]-4,5,6,7-tetrahydrobenzthiazol-4-carboxylic acid 4-dimethylaminobenzylamide] |  | 42%
27 | O=C(Cc1cccs1)Nc1nc2c(s1)CCCC2C(=O)N1CCCC1CN1CCCC1 (stereo not shown) [Example 5, N-[4-(2-Pyrrolidin-1-ylmethylpyrrolidin-1-carbonyl)-4,5,6,7-tetrahydrobenzthiazol-2-yl]-2-thiophen-2-ylacetamide] |  | 41%
28 | CCOc1ccccc1C(=O)Nc1nc2c(s1)CCCC2C(=O)N1CCCC1CN1CCCC1 (stereo not shown) [Example 31, 2-Ethoxy-N-[4-(2-pyrrolidin-1-ylmethylpyrrolidin-1-carbonyl)-4,5,6,7-tetrahydrobenzthiazol-2-yl]benzamide] |  | 59%
29 | COc1ccc(C(=O)Nc2nc3c(s2)CCCC3C(=O)N2CCN(Cc3ccc(Cl)cc3)CC2)cc1 (stereo not shown) [Example 25, N-{4-[4-(4-Chlorobenzyl)piperazin-1-carbonyl]-4,5,6,7-tetrahydrobenzthiazol-2-yl}-4-methoxybenzamide] |  | 53%
30 | CCCCCCNc1nc2c(s1)CCCC2C(=O)N(C)C1CCN(Cc2cc3ccccc3o2)C1 (stereo not shown) [Example 41, 2-Hexanylamino-4,5,6,7-tetrahydrobenzthiazol-4-carboxylic acid(1-benzofuran-2-ylmethylpyrrolidin-3-yl)methylamide] | 77% | 
31 | CC1CCCCN1CCCNC(=O)C1CCCc2sc(NC(=O)COc3ccccc3)nc21 (stereo not shown) [Example 42, 2-(2-Phenoxyacetylamino)-4,5,6,7-tetrahydrobenzthiazol-4-carboxylic acid[3-(2-methylpiperidin-1-yl)propyl]amide] | 42% | 
